Patent EP2776398B1, “SUBSTITUTED PYRAZOLYL-BASED UREA DERIVATIVES AS VANILLOID RECEPTOR LIGANDS” (Medifron DBT Inc., priority 2011, dated 2013)

biological target: T1, vanilloid receptor 1 (VR1/TRPV1 receptor) (Homo sapiens, UniProt Q8NER1); assay: Functional testing on vanilloid receptor 1: FLIPR Ca2+ influx assay against capsaicin (Cap) in transfected CHO K1 cells (pharmacological method II); type: cell-based; parameters: key to (f) Ki (human being) [nM] Cap: agonist classification: AG = agonist; details: @ 1µM; human VR1 in CHO K1 cells; capsaicin; relative to maximum inhibition with 10 µM capsazepine; read-out: inhibition (as a percentage), printed in column (f) Ki (human being) [nM] Cap; on Ki: 100 nM capsaicin
T1 construct: expressed in transfected cells; host or cells: CHO K1 cells (ECACC), stably transfected
Excerpt: […]

T1 sequence (Q8NER1 whole entry): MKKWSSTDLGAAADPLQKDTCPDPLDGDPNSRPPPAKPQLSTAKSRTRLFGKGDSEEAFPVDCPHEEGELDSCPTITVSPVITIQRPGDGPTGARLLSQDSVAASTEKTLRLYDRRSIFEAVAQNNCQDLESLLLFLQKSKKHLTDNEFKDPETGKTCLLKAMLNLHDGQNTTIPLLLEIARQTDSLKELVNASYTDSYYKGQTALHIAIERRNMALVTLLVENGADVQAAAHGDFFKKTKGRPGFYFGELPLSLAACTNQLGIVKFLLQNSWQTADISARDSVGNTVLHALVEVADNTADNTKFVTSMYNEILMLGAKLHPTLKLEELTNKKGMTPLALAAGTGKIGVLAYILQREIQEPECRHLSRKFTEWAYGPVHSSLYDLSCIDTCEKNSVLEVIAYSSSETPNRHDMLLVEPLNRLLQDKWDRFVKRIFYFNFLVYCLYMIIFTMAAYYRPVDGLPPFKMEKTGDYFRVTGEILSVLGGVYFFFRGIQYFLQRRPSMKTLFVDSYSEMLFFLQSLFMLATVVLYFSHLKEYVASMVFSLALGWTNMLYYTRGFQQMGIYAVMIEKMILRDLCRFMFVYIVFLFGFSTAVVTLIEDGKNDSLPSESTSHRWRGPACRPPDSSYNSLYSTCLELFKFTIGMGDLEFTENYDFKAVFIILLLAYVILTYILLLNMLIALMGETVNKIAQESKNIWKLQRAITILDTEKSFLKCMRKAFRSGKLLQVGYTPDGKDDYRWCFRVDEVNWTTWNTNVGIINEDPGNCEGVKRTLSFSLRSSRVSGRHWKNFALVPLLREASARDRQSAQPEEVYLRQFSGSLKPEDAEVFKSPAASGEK

| inhibition at 1 µM | Structure (SMILES) |
| --- | --- |
| 33% | CC(C(=O)NCc1cc(C(C)(C)C)nn1-c1ccc(F)cc1)c1ccc(COCCO)c(F)c1 (stereo not drawn) [A124, N-[[5-tert-Butyl-2-(4-fluorophenyl)-2H-pyrazol-3-yl]-methyl]-2-[3-fluoro-4-(2-hydroxy-ethoxy-methyl)-phenyl]-propionamide] |

same assay, conditions: human VR1 in CHO K1 cells; AG printed instead of a Ki

| (f) Ki (human being) [nM] Cap: agonist classification | Structure (SMILES) |
| --- | --- |
| AG | CC(C)(C)c1cc(CNC(=O)Nc2cc(F)c(O)c(F)c2)n(-c2cccc(Cl)c2)n1 [A11, 1-[[5-tert-Butyl-2-(3-chlorophenyl)-2H-pyrazol-3-yl]-methyl]-3-(3,5-difluoro-4-hydroxy-phenyl)-urea] |
| AG | CC(O)c1ccc(C(C)C(=O)NCc2cc(C(C)(C)C)nn2-c2cccc(Cl)c2)cc1F (stereo not drawn) [A98, N-[[5-tert-Butyl-2-(3-chlorophenyl)-2H-pyrazol-3-yl]-methyl]-2-[3-fluoro-4-(1-hydroxy-ethyl)-phenyl]-propionamide] |
| AG | CC(C(=O)NCc1cc(C(C)(C)C)nn1-c1cccc(Cl)c1)c1ccc(CO)c(Cl)c1 (stereo not drawn) [A51, N-[[5-tert-Butyl-2-(3-chlorophenyl)-2H-pyrazol-3-yl]-methyl]-2-[3-chloro-4-(hydroxymethyl)-phenyl]-propionamide] |
| AG | CC(C(=O)NCc1cc(C(F)(F)F)nn1-c1cccc(C(F)(F)F)c1)c1ccc(CO)c(F)c1 (stereo not drawn) [A48, 2-[3-Fluoro-4-(hydroxymethyl)-phenyl]-N-[[5-(trifluoromethyl)-2-[3-(trifluoromethyl)phenyl]-2H-pyrazol-3-yl]-methyl]-propionamide] |

same assay, conditions: read-out: (f) Ki (human being) [nM] Cap

| Structure (SMILES) | Ki |
| --- | --- |
| O=C(NCc1cc(C(F)(F)F)nn1-c1cccc(F)c1)Nc1ccc(OCCO)c(F)c1 [A21, 1-[3-Fluoro-4-(2-hydroxy-ethoxy)-phenyl]-3-[[2-(3-fluorophenyl)-5-(trifluoromethyl)-2H-pyrazol-3-yl]-methyl]-urea] | 7 nM |
| CC(C)(C)c1cc(CNC(=O)Nc2ccc(OCCO)c(F)c2)n(-c2cccc(Cl)c2)n1 [A19, 1-[[5-tert-Butyl-2-(3-chlorophenyl)-2H-pyrazol-3-yl]-methyl]-3-[3-fluoro-4-(2-hydroxy-ethoxy)-phenyl]-urea] | 13 nM |
| O=C(NCc1cc(C(F)(F)F)nn1-c1cccc(Cl)c1)Nc1cc(F)c(O)c(F)c1 [A12, 1-[[2-(3-Chlorophenyl)-5-(trifluoromethyl)-2H-pyrazol-3-yl]-methyl]-3-(3,5-difluoro-4-hydroxy-phenyl)-urea] | 8 nM |
| CC(C)(C)c1cc(CNC(=O)Nc2ccc(CO)c(Cl)c2)n(-c2cccc(Cl)c2)n1 [A96, 1-[[5-tert-Butyl-2-(3-chlorophenyl)-2H-pyrazol-3-yl]-methyl]-3-[3-chloro-4-(hydroxymethyl)-phenyl]-urea] | 2 nM |
| O=C(Cc1ccc(CO)c(F)c1)NCc1cc(C(F)(F)F)nn1-c1cccc(Cl)c1 [A30, N-[[2-(3-Chlorophenyl)-5-(trifluoromethyl)-2H-pyrazol-3-yl]-methyl]-2-[3-fluoro-4-(hydroxymethyl)-phenyl]-acetamide] | 21 nM |
| COc1c(F)cc(CC(=O)NCc2cc(C(C)(C)C)nn2-c2cccc(Cl)c2)cc1F [A1, N-[[5-tert-Butyl-2-(3-chlorophenyl)-2H-pyrazol-3-yl]-methyl]-2-(3,5-difluoro-4-methoxy-phenyl)-acetamide] | 12 nM |
| COc1ccc(-n2nc(C(F)(F)F)cc2CNC(=O)Nc2ccc(CO)c(F)c2)cc1C [A87, 1-[3-Fluoro-4-(hydroxymethyl)-phenyl]-3-[[2-(4-methoxy-3-methyl-phenyl)-5-(trifluoromethyl)-2H-pyrazol-3-yl]-methyl]-urea] | 63 nM |
| Cc1ccc(C)c(-n2nc(C(F)(F)F)cc2CNC(=O)Nc2ccc(CO)c(F)c2)c1 [A74, 1-[[2-(2,5-Dimethyl-phenyl)-5-(trifluoromethyl)-2H-pyrazol-3-yl]-methyl]-3-[3-fluoro-4-(hydroxymethyl)-phenyl]-urea] | 44 nM |
| CC(C(=O)NCc1cc(C(C)(C)C)nn1-c1ccc(F)cc1)c1ccc(CO)c(F)c1 (stereo not drawn) [A45, N-[[5-tert-Butyl-2-(4-fluorophenyl)-2H-pyrazol-3-yl]-methyl]-2-[3-fluoro-4-(hydroxymethyl)-phenyl]-propionamide] | 1 nM |
| CN(C)c1cccc(-n2nc(C(F)(F)F)cc2CNC(=O)Nc2ccc(CO)c(F)c2)c1 [A86, 1-[[2-(3-Dimethylamino-phenyl)-5-(trifluoromethyl)-2H-pyrazol-3-yl]-methyl]-3-[3-fluoro-4-(hydroxymethyl)-phenyl]-urea] | 25 nM |

More lines, now with the values ahead:

| Ki | Structure (SMILES) |
| --- | --- |
| 45 nM | CC(C)(C)c1cc(CNC(=O)Nc2ccc(C3(O)COC3)cc2)n(-c2cccc(Cl)c2)n1 [A107, 1-[[5-tert-Butyl-2-(3-chlorophenyl)-2H-pyrazol-3-yl]-methyl]-3-[4-(3-hydroxy-oxetan-3-yl)-phenyl]-urea] |
| 22 nM | COc1cccc(-n2nc(C(F)(F)F)cc2CNC(=O)C(C)c2ccc(C3(O)CC3)c(F)c2)c1 (stereo not drawn) [A103, 2-[3-Fluoro-4-(1-hydroxy-cyclopropyl)-phenyl]-N-[[2-(3-methoxyphenyl)-5-(trifluoromethyl)-2H-pyrazol-3-yl]-methyl]-propionamide] |
| 19 nM | CC(C)(C)c1cc(CNC(=O)Nc2ccc(C(O)CO)c(F)c2)n(-c2cccc(Cl)c2)n1 (stereo not drawn) [A150, 1-[[5-tert-Butyl-2-(3-chlorophenyl)-2H-pyrazol-3-yl]-methyl]-3-[4-(1,2-dihydroxy-ethyl)-3-fluoro-phenyl]-urea] |
| 0.6 nM | CC(C)c1cccc(-n2nc(C(F)(F)F)cc2CNC(=O)C(C)c2ccc(CCO)c(F)c2)c1 (stereo not drawn) [A137, 2-[3-Fluoro-4-(2-hydroxy-ethyl)-phenyl]-N-[[2-(3-isopropyl-phenyl)-5-(trifluoromethyl)-2H-pyrazol-3-yl]-methyl]-propionamide] |
| 43 nM | CC(C)(C)c1cc(CNC(=O)Nc2ccc(COCCO)c(F)c2)n(-c2cccc(Cl)c2)n1 [A129, 1-[[5-tert-Butyl-2-(3-chlorophenyl)-2H-pyrazol-3-yl]-methyl]-3-[3-fluoro-4-(2-hydroxy-ethoxy-methyl)-phenyl]-urea] |
| 3 nM | CC(C)c1cccc(-n2nc(C(F)(F)F)cc2CNC(=O)C(C)c2ccc(COCCO)c(F)c2)c1 (stereo not drawn) [A115, 2-[3-Fluoro-4-(2-hydroxy-ethoxy-methyl)-phenyl]-N-[[2-(3-isopropyl-phenyl)-5-(trifluoromethyl)-2H-pyrazol-3-yl]-methyl]-propionamide] |
| 20 nM | CC(C(=O)NCc1cc(C(F)(F)F)nn1-c1ccc(F)c(Cl)c1)c1ccc(COCCO)c(F)c1 (stereo not drawn) [A121, N-[[2-(3-Chloro-4-fluoro-phenyl)-5-(trifluoromethyl)-2H-pyrazol-3-yl]-methyl]-2-[3-fluoro-4-(2-hydroxy-ethoxy-methyl)-phenyl]-propionamide] |
| 40 nM | CC(C(=O)NCc1cc(C(F)(F)F)nn1-c1cccc(F)c1)c1ccc(CCO)c(F)c1 (stereo not drawn) [A136, 2-[3-Fluoro-4-(2-hydroxy-ethyl)-phenyl]-N-[[2-(3-fluorophenyl)-5-(trifluoromethyl)-2H-pyrazol-3-yl]-methyl]-propionamide] |
| 9 nM | CC(C(=O)NCc1cc(C(C)(C)C)nn1-c1cccc(Cl)c1)c1ccc(COCCO)c(F)c1 (stereo not drawn) [A117, N-[[5-tert-Butyl-2-(3-chlorophenyl)-2H-pyrazol-3-yl]-methyl]-2-[3-fluoro-4-(2-hydroxy-ethoxy-methyl)-phenyl]-propionamide] |
